Source: patent publication US20120156615A1, “CYCLIC COMPOUND, PROCESS FOR PRODUCTION OF THE CYCLIC COMPOUND, RADIATION-SENSITIVE COMPOSITION, AND METHOD FOR FORMATION OF RESIST PATTERN” (MITSUBISHI GAS CHEMICAL COMPANY, INC., priority 2009, published 2012)

Test: Solubility of compound in safety solvent
Type: physicochemical
Settings: for solubility in CHN (dissolved amount): solvent cyclohexanone (CHN); for solubility in PGME (dissolved amount): solvent propylene glycol monomethyl ether (PGME)
Description: (1) Solubility of Compound in Safety Solvent
The compounds obtained in Synthesis Examples 1 to 6 and Synthesis 1 to 4 were evaluated for the solubility in propylene glycol monomethyl ether (PGME) and cyclohexanone (CHN).
A: 20.0 wt %≦dissolved amount
B: 1.0 wt %≦dissolved amount<20.0 wt %
C: dissolved amount<1.0 wt %

| Structure (SMILES) | solubility in CHN (dissolved amount) | solubility in PGME (dissolved amount) |
| --- | --- | --- |
| Oc1cc(O)c2cc1C(c1ccc(C3CCCCC3)cc1)c1cc(c(O)cc1O)C(c1ccc(C3CCCCC3)cc1)c1cc(c(O)cc1O)C(c1ccc(C3CCCCC3)cc1)c1cc(c(O)cc1O)C2c1ccc(C2CCCCC2)cc1 (stereo not shown) [CR-4A] | B (1.0 wt %≦dissolved amount<20.0 wt %) | B (1.0 wt %≦dissolved amount<20.0 wt %) |
| CC(C)c1ccc(C2c3cc(c(O)cc3O)C(c3ccc(C(C)C)cc3)c3cc(c(O)cc3O)C(c3ccc(C(C)C)cc3)c3cc(c(O)cc3O)C(c3ccc(C(C)C)cc3)c3cc2c(O)cc3O)cc1 (stereo not shown) [CR-1A] | B (1.0 wt %≦dissolved amount<20.0 wt %) | B (1.0 wt %≦dissolved amount<20.0 wt %) |
